According to article PMC4099110, “Synthesis and Evaluation of Novel Pyrroles and Pyrrolopyrimidines as Anti-Hyperglycemic Agents” (BioMed Research International, 2014):

System: male Wistar albino rats
Experiment: Streptozotocin (STZ) model of diabetes, blood glucose AUC
Format: in vivo, rat
Conditions: decrease in blood glucose relative to Amaryl = 100%; model not stated
Method: The complete course of the experiment was conducted using male Wistar albino rats (200-250 g), reared and maintained in the animal house of the institution and provided free access to pelleted food and water ad libitum. The rats were maintained in a controlled environment (12 h light and dark cycle) for about a week for acclimatization. The protocol of the study was approved by the animal ethics committee of the Faculty of Pharmacy, […] University (10-01-2012). The study was conducted in accordance with the EC, directive 86/609/EEC for animal experiments. […] Equivalent doses of all derivatives were calculated according to their molecular weight [M·wt]. Diabetes was induced in overnight fasted rats with a single intraperitoneal injection of streptozotocin (STZ) (Sigma-Aldrich, Co., St. Louis, USA. Catalog number: 1001062761) in a dose of 65 mg/kg. STZ was freshly dissolved in ice cold citrate buffer (0.01 M, pH 4.5) prior to injection. […] Group 2, diabetic + Glimepiride ([…]) (4 mg/kg), served as a reference antidiabetic drug. Groups (3-14) were given the various pyrrole derivatives ([…], b, f, and VIIIf, a, resp.). The treated groups administered the […] and different derivatives orally. For each group, blood glucose was estimated at zero, one, two, four, and six hours after oral administration of derivatives using glucometer (Gluco Dr Super Sensor, AllMedicus Co., Ltd., Anyang, Gyeonggi, Korea). Data were represented as mean area under curve (AUC) ± SD. Significant differences between groups was tested using GraphPad InStat (Graph software Inc., V 3.05, Ralph […], Purdue University). Appropriate graphs were plotted using Microsoft Excel 2007.

Row | SMILES | Potency of antihyperglycemic derivatives compared to Amaryl
1 | Cc1nc(NN)c2c(-c3ccccc3)c(-c3ccccc3)n(-c3c(C)n(C)n(-c4ccccc4)c3=O)c2n1 [Vg, 4-(4-Hydrazinyl-2-methyl-5,6-diphenyl-7H-pyrrolo[2,3-d]pyrimidin-7-yl)-1,5-dimethyl-2-phenyl-1H-pyrazol-3(2H)-one] | 36.19%

System: not given
Experiment: not given
Conditions: not given

Row | SMILES | melting point
2 | Cc1c(-n2cc(-c3ccccc3)c3c(=O)[nH]cnc32)c(=O)n(-c2ccccc2)n1C [IIe, 7-(1,5-Dimethyl-3-oxo-2-phenyl-2,3-dihydro-1H-pyrazol-4-yl)-5-phenyl-3H-pyrrolo[2,3-d]pyrimidin-4(7H)-one] | 205 to 208 °C
3 | Cc1nc2c(c(-c3ccccc3)c(-c3ccccc3)n2Cc2ccccc2)c(=S)[nH]1 [VIf, 7-Benzyl-2-methyl-5,6-diphenyl-3H-pyrrolo[2,3-d]pyrimidine-4(7H)-thione] | 165 to 167 °C
4 | Cc1c(-n2cc(-c3ccccc3)c3c(N)ncnc32)c(=O)n(-c2ccccc2)n1C [IIIe, 4-(4-Amino-5-phenyl-7H-pyrrolo[2,3-d]pyrimidin-7-yl)-1,5-dimethyl-2-phenyl-1H-pyrazol-3(2H)-one] | 152 to 155 °C
5 | Cc1c(-n2cc(-c3ccccc3)c3c(N)nc(=S)[nH]c32)c(=O)n(-c2ccccc2)n1C [IIIj, 4-(4-Amino-5-phenyl-2-thioxo-1H-pyrrolo[2,3-d]pyrimidin-7(2H)-yl)-1,5-dimethyl-2-phenyl-1H-pyrazol-3(2H)-one] | 172 to 174 °C
6 | CC(=O)Nc1c(C#N)c(-c2ccccc2)cn1-c1c(C)n(C)n(-c2ccccc2)c1=O [Io, N-(3-Cyano-1-(1,5-dimethyl-3-oxo-2-phenyl-2,3-dihydro-1H -pyrazol-4-yl)-4-phenyl-1H -pyrrol-2-yl)acetamide] | 135 to 138 °C
7 | S=c1[nH]cnc2c1c(-c1ccccc1)c(-c1ccccc1)n2-c1ccc(Cl)c(Cl)c1 [VId, 7-(3,4-Dichlorophenyl)-5,6-diphenyl-3H-pyrrolo[2,3-d]pyrimidine-4(7H)-thione] | 142 to 166 °C
8 | CCOC(=O)C(C#N)=NNc1c(C#N)c(-c2ccccc2)c(-c2ccccc2)n1Cc1ccccc1 [VIIf, Ethyl 2-(2-(1-Benzyl-3-cyano-4,5-diphenyl-1H-pyrrol-2-yl)hydrazono)-2-cyano-acetate] | 125 to 130 °C
9 | CC(=O)Nc1c(C#N)c(-c2ccccc2)c(-c2ccccc2)n1-c1ccc(Cl)c(Cl)c1 [In, N-(3-Cyano-1-(3,4-dichlorophenyl)-4,5-diphenyl-1H -pyrrol-2-yl) acetamide] | 135 to 138 °C
10 | Nc1ncnc2c1c(-c1ccccc1)c(-c1ccccc1)n2-c1ccc(Cl)c(Cl)c1 [IIId, 7-(3,4-Dichlorophenyl)-5,6-diphenyl-7H-pyrrolo[2,3-d]pyrimidin-4-amine] | 115 to 118 °C
11 | Cc1nc(Cl)c2c(-c3ccccc3)cn(-c3c(C)n(C)n(-c4ccccc4)c3=O)c2n1 [IVi, 4-(4-Chloro-2-methyl-5-phenyl-7H-pyrrolo[2,3-d]pyrimidin-7-yl)-1,5-dimethyl-2-phenyl-1H-pyrazol-3(2H)-one] | 95 to 100 °C
12 | Clc1ccc(-n2c(-c3ccccc3)c(-c3ccccc3)c3c(Cl)ncnc32)cc1Cl [IVd, 4-Chloro-7-(3,4-dichlorophenyl)-5,6-diphenyl-7H-pyrrolo[2,3-d]pyrimidine] | 124 to 128 °C
13 | Cc1nc2c(c(-c3ccccc3)cn2-c2c(C)n(C)n(-c3ccccc3)c2=O)c(=O)[nH]1 [IIj, 7-(1,5-Dimethyl-3-oxo-2-phenyl-2,3-dihydro-1H-pyrazol-4-yl)-2-methyl-5-phenyl-3H-pyrrolo[2,3-d]pyrimidin-4(7H)-one] | 225 to 227 °C
14 | Cc1nc2c(c(-c3ccccc3)c(-c3ccccc3)n2-c2ccc(Cl)c(Cl)c2)c(=O)[nH]1 [IIi, 7-(3,4-Dichlorophenyl)-2-methyl-5,6-diphenyl-3H-pyrrolo[2,3-d]pyrimidin-4(7H)-one] | 200 to 202 °C
15 | N#Cc1c(-c2ccccc2)c(-c2ccccc2)n(-c2ccc(Cl)c(Cl)c2)c1N [Id, 2-Amino-1-(3,4-dichlorophenyl)-4,5-diphenyl-1H-pyrrole-3-carbonitrile] | 118 to 122 °C
16 | Cc1nc(Cl)c2c(-c3ccccc3)c(-c3ccccc3)n(Cc3ccccc3)c2n1 [IVf, 7-Benzyl-4-chloro-2-methyl-5,6-diphenyl-7H-pyrrolo[2,3-d]pyrimidine] | 120 to 124 °C
17 | Cc1c(-n2cc(-c3ccccc3)c(C#N)c2NN=C2C(N)=NN=C2N)c(=O)n(-c2ccccc2)n1C [VIIIe, 2-(2-(3,5-Diamino-4H-pyrazol-4-ylidene)hydrazinyl)-1-(1,5-dimethyl-3-oxo-2-phenyl-2,3-dihydro-1H-pyrazol-4-yl)-4-phenyl-1H-pyrrole-3-carbonitrile] | 135 to 138 °C
18 | Cc1nc(NN)c2c(-c3ccccc3)c(-c3ccccc3)n(-c3ccc(Cl)c(Cl)c3)c2n1 [Vh, 7-(3,4-Dichlorophenyl)-4-hydrazinyl-2-methyl-5,6-diphenyl-7H-pyrrolo[2,3-d]pyrimidine] | 142 to 146 °C
19 | NNc1ncnc2c1c(-c1ccccc1)c(-c1ccccc1)n2-c1ccc(Cl)c(Cl)c1 [Vd, 7-(3,4-Dichlorophenyl)-4-hydrazinyl-5,6-diphenyl-7H-pyrrolo[2,3-d]pyrimidine] | 122 to 126 °C
20 | Cc1c(-n2cc(-c3ccccc3)c3c(NN)ncnc32)c(=O)n(-c2ccccc2)n1C [Ve, 4-(4-Hydrazinyl-5-phenyl-7H-pyrrolo[2,3-d]pyrimidin-7-yl)-1,5-dimethyl-2-phenyl-1H-pyrazol-3(2H)-one] | 142 to 146 °C
21 | Cc1nc(Cl)c2c(-c3ccccc3)c(-c3ccccc3)n(-c3ccc(Cl)c(Cl)c3)c2n1 [IVh, 4-Chloro-7-(3,4-dichlorophenyl)-2-methyl-5,6-diphenyl-7H-pyrrolo[2,3-d]pyrimidine] | 108 to 110 °C
22 | Cc1nc(NN)c2c(-c3ccccc3)cn(-c3c(C)n(C)n(-c4ccccc4)c3=O)c2n1 [Vi, 4-(4-Hydrazinyl-2-methyl-5-phenyl-7H-pyrrolo[2,3-d]pyrimidin-7-yl)-1,5-dimethyl-2-phenyl-1H-pyrazol-3(2H)-one] | 148 to 150 °C
23 | Cc1nc(NN)c2c(-c3ccccc3)c(-c3ccccc3)n(Cc3ccccc3)c2n1 [Vf, 7-Benzyl-4-hydrazinyl-2-methyl-5,6-diphenyl-7H-pyrrolo[2,3-d] pyrimidine] | 147 to 152 °C
24 | N#Cc1c(-c2ccccc2)c(-c2ccccc2)n(-c2ccc(Cl)c(Cl)c2)c1NN=C1C(N)=NN=C1N [VIIId, 2-(2-(3,5-Diamino-4H-pyrazol-4-ylidene)hydrazinyl)-1-(3,4-dichlorophenyl)-4,5-diphenyl-1H-pyrrole-3-carbonitrile] | 120 to 124 °C
25 | Cc1nc(NN)c2c(-c3ccccc3)c(-c3ccccc3)n(-c3c(C)n(C)n(-c4ccccc4)c3=O)c2n1 [Vg, 4-(4-Hydrazinyl-2-methyl-5,6-diphenyl-7H-pyrrolo[2,3-d]pyrimidin-7-yl)-1,5-dimethyl-2-phenyl-1H-pyrazol-3(2H)-one] | 185 to 188 °C
26 | Cc1c(-n2cc(-c3ccccc3)c3c(Cl)ncnc32)c(=O)n(-c2ccccc2)n1C [IVe, 4-(4-Chloro-5-phenyl-7H-pyrrolo[2,3-d]pyrimidin-7-yl)-1,5-dimethyl-2-phenyl-1H-pyrazol-3(2H)-one] | 125 to 130 °C
27 | N#Cc1c(-c2ccccc2)c(-c2ccccc2)n(Cc2ccccc2)c1NN=C1C(N)=NN=C1O [VIIIf, 2-(2-(3-Amino-5-hydroxy-4H-pyrazol-4-ylidene)hydrazinyl)-1-benzyl-4,5-diphenyl-1H-pyrrole-3-carbonitrile] | 97 to 100 °C
28 | O=c1[nH]cnc2c1c(-c1ccccc1)c(-c1ccccc1)n2-c1ccc(Cl)c(Cl)c1 [IId, 7-(3,4-Dichlorophenyl)-5,6-diphenyl-3H-pyrrolo[2,3-d]pyrimidin-4(7H)-one] | 172 to 176 °C
29 | Cc1c(-n2cc(-c3ccccc3)c3c(=S)[nH]cnc32)c(=O)n(-c2ccccc2)n1C [VIe, 1,5-Dimethyl-2-phenyl-4-(5-phenyl-4-thioxo-3H-pyrrolo[2,3-d]pyrimidin-7(4H)-yl)-1H-pyrazol-3(2H)-one] | 142 to 166 °C
30 | Nc1nc(=S)[nH]c2c1c(-c1ccccc1)c(-c1ccccc1)n2-c1ccc(Cl)c(Cl)c1 [IIIi, 4-Amino-7-(3,4-dichlorophenyl)-5,6-diphenyl-1H-pyrrolo[2,3-d] pyrimidine-2(7H)-thione] | 90 to 95 °C
